A compilation of properties of binary mixtures (doi:10.1016/j.molliq.2020.114573)

Test: xn = mol fraction of the nth substance listed
Conditions: 101.3 kPa

CCCCn1cc[n+](C)c1C.O=S(=O)([N-]S(=O)(=O)C(F)(F)F)C(F)(F)F + CC1COC(=O)O1
viscosity [mPa·s]
Conditions | x1 = 0.0902 | x1 = 0.193 | x1 = 0.2934 | x1 = 0.4039 | x1 = 0.4996 | x1 = 0.6034 | x1 = 0.6989 | x1 = 0.8107 | x1 = 0.8987 | x1 = 1
288.15 K | 5.24 | 9.07 | 14.94 | 24.89 | 37.46 | 54.7 | – | 104.9 | 137 | 178.8
293.15 K | – | 7.79 | 12.54 | 20.44 | 30.16 | – | 59.4 | 80.2 | 103.2 | 132.9
298.15 K | 4.073 | 6.76 | 10.65 | – | 24.69 | 34.79 | 47.12 | 62.7 | 79.6 | 101.1
303.15 K | 3.637 | – | 9.15 | 14.34 | – | 28.47 | 38.01 | – | 62.6 | –
308.15 K | 3.272 | – | 7.95 | 12.21 | 17.68 | 23.64 | 31.16 | – | 50.2 | 62.2
313.15 K | – | 4.661 | 6.97 | – | 15.21 | 19.88 | 25.91 | 33.28 | 40.89 | –
318.15 K | 2.693 | – | – | 9.16 | – | 17.36 | 21.81 | – | 33.77 | –
323.15 K | 2.463 | 3.77 | 5.49 | 8.04 | 11.16 | 15.04 | 18.72 | 23.39 | 28.28 | 34.04
328.15 K | – | 3.421 | 4.92 | 7.12 | 9.65 | 12.98 | 16.46 | 19.94 | 23.94 | 28.58
333.15 K | 2.088 | 3.121 | 4.439 | 6.34 | 8.42 | 11.22 | 14.32 | – | 20.47 | –
338.15 K | 1.933 | 2.86 | – | 5.69 | – | 9.78 | 12.45 | 15.42 | 17.95 | 20.79
343.15 K | 1.796 | 2.633 | 3.671 | 5.13 | – | – | 10.85 | 13.47 | 15.87 | 18.12
348.15 K | 1.675 | 2.433 | 3.363 | 4.658 | 5.82 | 7.58 | 9.51 | 11.82 | 13.95 | 16.01
